The values that follow are results of earlier work, collected in publication PMC6316600, “Analgesic Activity of Acid-Sensing Ion Channel 3 (ASIС3) Inhibitors: Sea Anemones Peptides Ugr9-1 and APETx2 versus Low Molecular Weight Compounds” (Marine Drugs, 2018).

Series [1] has as its system CFA-induced thermal hyperalgesia. To be noted: cited from earlier work. As for the experimental part: An inhibition of ASIC3 was reported to be an attractive approach to producing analgesia. […] Other nonspecific substances can also influence ASIC3 activity. […] Several ligands with inhibitory properties were found for this receptor, each of which was able to induce analgesia in animal tests. The most well-known inhibitor APETx2 in various studies has been tested on models of acid-induced muscle pain model, CFA-induced inflammatory pain model (at doses of 0.07, 0.22 and 2.2 µM). Ugr9-1 was studied in models of CFA-induced thermal hyperalgesia and acetic acid writhing test (at doses of 0.5, 0.1, and 0.01 mg/kg). […] The nonspecific actions on other cellular targets and the changes of ASIC3 involvement in the inflammatory process induced by the high antagonists’ concentration for 2 h are suspected. We conclude that the inhibition of both components of ASIC3 currents could be beneficial but could be reversed by hormesis in high doses and during a long exposure to ...

For series [2] the following is noted: cited from earlier work. An excerpt: Several explanations could be proposed. First, the result of partial ASIC1a inhibition is unpredictable. Second, better bioavailability of sevanol compared with Ugr9-1 can enhance the effect. Peptides from sea anemones have rather shor ...
Series [3] concerns ASIC1a. The following applies: cited from earlier work. The source says:
An inhibition of ASIC3 was reported to be an attractive approach to producing analgesia. […] Other nonspecific substances can also influence ASIC3 activity.

Structures are written as SMILES. Bridge positions count the residues as written; N and C are the ends. Peptide text beside a SMILES is read from it.

Consider `CC[C@H](C)[C@H](N)C(=O)N[C@@H](CO)C(=O)N[C@H](C(=O)N[C@@H](CC(=O)O)C(=O)N1CCC[C@H]1C(=O)N1CCC[C@H]1C(=O)N[C@H]1CSSC[C@@H](C(=O)NCC(=O)N[C@@H](C)C(=O)N[C@H](C(=O)O)C(C)C)NC(=O)CNC(=O)[C@H](Cc2ccc(O)cc2)NC(=O)[C@H](C)NC(=O)[C@H](CC(=O)O)NC(=O)[C@H](Cc2ccc(O)cc2)NC(=O)[C@H](C(C)C)NC(=O)[C@@H]2CSSC[C@H](NC(=O)[C@H](Cc3ccccc3)NC(=O)[C@H](CCCNC(=N)N)NC1=O)C(=O)N[C@@H](Cc1ccc(O)cc1)C(=O)N[C@@H](Cc1c[nH]cn1)C(=O)N[C@@H](CCCNC(=N)N)C(=O)N[C@@H](CC(=O)O)C(=O)NCC(=O)N[C@@H](CO)C(=O)NCC(=O)N[C@@H](CC(N)=O)C(=O)N2)[C@@H](C)CC` [Ugr9-1] (H-ISIDPPCRFCYHRDGSGNCVYDAYGCGAV-OH; disulfide 7-26, 10-19; N-terminus and C-terminus assumed), for which, in series [1] (intravenous, 30 min before testing), the “Dose dependence, CFA thermal hyperalgesia test” value was “clearly dose-dependent”.

As for `O=C(O)Cc1ccccc1Nc1c(Cl)cccc1Cl` [diclofenac, reference compound], the “Effect on CFA-induced thermal hyperalgesia” value in series [1] (100 mg/kg i.p.) was “significantly reduced CFA-induced thermal hyperalgesia”. Moreover, in series [2], the Circulating half-life result is “about 2 h” and the “Time of final elimination from the blood flow” value is listed as 10 h.

In the case of `O=C(O)C[C@H](C(=O)O)[C@@H](OC(=O)C1=Cc2cc(O)c(O)cc2[C@@H](c2ccc(O)c(O)c2)[C@@H]1C(=O)O[C@@H](C(=O)O)[C@H](CC(=O)O)C(=O)O)C(=O)O` [sevanol], in series [3], the “Inhibition of ASIC1a” value is given as “able to inhibit ASIC1a”.
